One assay relates to DNA-PK. As to the kind of experiment: DNA-PK activity in treated BMDM by immune-complex kinase assay. The assay is classed as cell-based, mice. Particulars: DNA-PKcs-deficient BMDM. The protocol:
(§1) Kinase assays and immunoblotting were performed according to Li et al. ((1999) J. Exp. Med. 189:1839-1845). Briefly, BMDM were treated with ISS-ODN (5 μg/ml), M-ODN (5 μg/ml) on ps and po backbones as indicated, LPS-free bacterial DNA or methylated bacterial DNA (5 μg/ml), LPS-free calf thymus DNA (5 μg/ml), LPS (10 μg/ml) or TNFα (10 ng/ml) for the indicated time periods. Cell lysates were prepared and normalized by immunoblotting (IB) with anti-IKKα polyclonal antibodies (Santa Cruz, Santa Cruz Biotech Inc., Calif.), anti-IKKβ polyclonal antbodies (Santa Cruz) or anti-DNA-PKcs monoclonal antibodies (NeoMarker, Calif.). IκB kinase (IKK) complex or DNA-PK complex from 100 μg of the lysates were immunoprecipitated by anti-IKKα or by anti-DNA-PKcs antibodies. The kinase activities (KA) were determined by a kinase assay using the N-terminus of IκBα (for IKK) or the N-terminus of p53 (for DNA-PK) as a substrate as previously described. Wang et al. (1992) Proc. Natl. Acad. Sci. USA 89:4231-4235; Li et al.(1999), supra; and Hammarsten et al. (2000) J. Biol. Chem. 275:1541-1545.
To further determine whether ISS-ODN, po-ISS-ODN or bacterial DNA activate DNA-PK in cells, we treated BMDM from either wt or DNA-PKcs-deficient mice with ISS-ODN, po-ISS-ODN, bacterial DNA or LPS as a control.

The next assay concerns IKKβ. Put plainly: In vitro IKK kinase assay: recombinant IKKβ incubated with DNA-PK with or without ISS-ODN. Type of assay: biochemical. The protocol: The ODNs (ps-ss) used include an ISS-ODN with an active CpG motif (AACGTT), a methylated ISS-ODN at the ^5C of the CpG dinucleotide (AA*CGTT) and various control ODNs. These ODNs were incubated at concentrations of 0, 0.1, 0.3, or 1 ng/reaction. The po-ISS-ODN was incubated at concentration of 20, 50 or 100 ng/reaction. The po-ds-ISS-ODN was incubated at concentration of 0, 0.5, 1, 2, 5 or 10 ng/reaction. The bacterial or calf thymus DNAs were each incubated at concentration of 1, 2 or 5 ng/reaction. Electrophoretic gel mobility shift assay (EMSA) was performed as previously described. Chu et al. (1999) Immunity 11:721-731; and Li et al., 1999, supra). In vitro IKK kinase assays were performed using purified IKK derived from Sf9 insect cell lysates as was previously described. Zandi et al. (1998) Science 281:1360-1363.
To explore a role of ISS-activated DNA-PK in IKK activation we tested whether affinity-purified DNA-PK can directly activate recombinant IKKα or IKKβ purified from Sf9 cells (Zandi et al., 1998, supra). […] Furthermore, although DNA-PKcs phosphorylated IκBα that activity was considerably lower than that achieved by IKKβ plus DNA-PK. […] To further confirm the activation of IKKβ by DNA-PK, we performed a coupled-kinase assay. Recombinant IKKβ was pre-incubated with DNA-PK in the presence or absence of ISS-ODN followed by immunoprecipitation of IKKβ and IκB kinase activity was measured. […] We next determined whether DNA-PK phosphorylates IKKβ.

Assay [1] relates to IL-6, IL-12 message in liver. As to the kind of experiment: RT-PCR for IL-6 and IL-12 message in livers of mice injected i.v. with ODN. Type of assay: in vivo. Particulars: mice i.v. 200 μl (1 μg/μl in PBS) of ss or ds ODN; 2.5 hours.
Assay [2] concerns bone marrow derived macrophages (BMDM). To be noted: Martin-Orozco et al. (1999); cited from earlier work.
Another assay deals with IκB kinase (IKK) complex. Put plainly: IKK kinase assay on IKK complex immunoprecipitated from treated BMDM (IκBα N-terminus substrate). Type of assay: cell-based, mice. The protocol: as §1
Assay [3] concerns bone marrow derived macrophages (BMDM). As to the kind of experiment: Northern blot of IL-6 and IL-12 mRNA in BMDM. The assay is classed as cell-based, mice. The protocol:
PCR were performed under the following conditions by appropriate cycling number (94° C. for 30 seconds; 65° C. for 30 seconds; and 68° C. for 30 seconds). PCR products were visualized by electrophoresis on 1.5% TAE agarose gels after being stained with ethidium bromide. BMDM isolated from either wild type or Ku 70^−/− mice were treated with ISS (10 μg/ml) or LPS (10 μg/ml) or left untreated for 6.5 hours. Total RNA was isolated and 10 μg of total RNA was separated on 1% agarose gel and then transferred onto a nylon membrane. The membrane was probed with [^32P]-labeled IL-6 or IL-12 or GAPDH cDNA followed by autoradiography, as described previously. Chu et al. (1999) Immunity 11:1.
BMDM (2.5×10^5/well) from wt, or Ku70^−/− and Ku80^−/− mice were treated with LPS (1 μg/ml), ISS-ODN (5 μg/ml) or M-ODN (5 μg/ml) for 24 hours. IL-6 (A) or IL-12 (B) levels in the supernatants were determined by ELISA. Results are means±S.D, of 5 separate experiments for wt and Ku70^−/− and 3 separate experiments for Ku80^−/− mice. (C) BMDM were incubated with LPS (10 μg/ml) or ISS-ODN (5 μg/ml) for 6.5 hours. Total RNA was isolated and analyzed for the presence of IL-6, IL-12 and GAPDH messages by a Northern blot assay, as described in Example 1. Results are means±S.D. of 5 separate experiments for wt and Ku70^−/− and 3 separate experiments for Ku80^−/− mice. […]

“Also recorded” adds a separate entry of the source.

In the case of 5′-TGACTGTGAACGTTCGAGATGA-3′ [ISS-ODN], the “DNA-PK activity in cells” value with DNA-PK is given as “Little or no DNA-PK activity”. Moreover, the “phosphorylation of catalytically inactive IKKβ (KA) by DNA-PK” value with IKKβ (incubated with ISS-ODN) is “phosphorylated”. Also, the “activation of IKKβ by DNA-PK, coupled-kinase assay” value in the assay with IKKβ (pre-incubation with DNA-PK with or without ISS-ODN, then immunoprecipitation of IKKβ) is recorded as “only activates IKKβ in the presence of ISS-ODN”. For the same substance, the “kinase activity of IKKβ measured by IκB phosphorylation” value on IKKβ (recombinant IKKβ incubated with DNA-PK in the presence of ISS-ODN) is “further increased”. The “IL-6 and IL-12 message in liver (RT-PCR)” value in assay [1] was “readily detected; also recorded: cytokine induction”. In assay [2], the “IL-6 and IL-12 secretion” value is reported as “high levels”. The “IKK activation, wt vs ATM-deficient BMDM” value in the assay with IκB kinase (IKK) complex (ATM-deficient BMDM) was “no differences were observed”. Further, in the assay on IκB kinase (IKK) complex (DNA-PKcs-/- BMDM as compared to wt), the IKK activation entry was “little increase in IKK activity”. Also, the IKK activation result in the assay with IκB kinase (IKK) complex (IKKβ-/- Tnfr-/- BMDM (absence of IKKβ)) is “prevented”. Moreover, in the assay with IκB kinase (IKK) complex (wt BMDM), the IKK activation entry is “robust IKK activation”, the “duration of IKK activation” value is “about 4 hrs” and the “time of maximal IKK activation post incubation” value turned out to be 30 min. Also, the “ISS-ODN concentration of optimal IKK activation” value in the assay with IκB kinase (IKK) complex (wt BMDM (FIG. 5B)) was 0.65 µg/mL. Moreover, the “induction of IL-6 and IL-12 mRNAs” value in assay [3] (DNA-PKcs-deficient BMDM) was “Little induction”. Further, in assay [3] (Ku70-/- or Ku80-/- BMDM, 6.5 hours), the “induction of IL-6 and IL-12 mRNA (Northern blot)” value is given as “lack of induction”.
